US12350270B2, “Antimalarial agents” (Merck Sharp & Dohme LLC, priority 2019, dated 2025)

Each molecule was assayed on parasites (ring stage, in human red blood cell culture) (assay: Parasite LDH growth assay (antiparasite potency, Parasite Assay)). Details: 0.7% rings, 2% haematocrit, 72 hours at 37° C., LDH readout of parasite growth.
Type: cell-based, Plasmodium falciparum
Outline: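 Growth was read by an LDH assay after a freeze–thaw cycle (−80 °C overnight, 4 h thaw at RT). Before that, parasites grew with compound for 72 h at 37 °C under gassed, humidified conditions. The input was a ring-stage culture adjusted to 0.7% parasitemia and 2% haematocrit in serum (5%)/albumax (0.5%)-supplemented RPMI-Hepes.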

| SMILES | EC50 [nM] |
| --- | --- |
| CC1(C)CC(=O)N([C@@H]2CCOc3ccc(C(=O)N[C@H]4CC(C)(C)Oc5ccccc54)cc32)C(=N)N1 [Example 106, (4R)-N-[(4S)-2,2-dimethylchroman-4-yl]-4-(2-imino-4,4-dimethyl-6-oxo-hexahydropyrimidin-1-yl)chromane-6-carboxamide] | 6.6 |

Same assay, conditions: Plasmodium falciparum, Erythrocyte, 72 h, 0.7% rings, 2% haematocrit, 72 hours at 37° C., LDH readout of parasite growth

| SMILES | EC50 [nM] |
| --- | --- |
| CC1(C)CC(=O)N([C@@H]2CCc3ccc(C(=O)N[C@@H]4c5ccccc5C[C@@]4(C)O)cc32)C(=N)N1 [Example 80, (3R)-N-[(1R,2R)-2-hydroxy-2-methyl-indan-1-yl]-3-(2-imino-4,4-dimethyl-6-oxo-hexahydropyrimidin-1-yl)indane-5-carboxamide] | 18 |
| CC[C@]1(C)CC(=O)N([C@@H]2CCc3ccc(C(=O)N[C@@H]4c5ccccc5C[C@H]4O)cc32)C(=N)N1 [Example 81, (3R)-3-[(4R)-4-ethyl-2-imino-4-methyl-6-oxo-hexahydropyrimidin-1-yl]-N-[(1R,2R)-2-hydroxyindan-1-yl]indane-5-carboxamide] | 6.6 |
| C[C@@H]1C[C@@H](N2C(=N)NC(C)(C)CC2=O)c2cc(C(=O)N[C@@H]3c4ccccc4C[C@H]3O)ccc21 [Example 82, (1R,3R)-N-[(1R,2R)-2-hydroxyindan-1-yl]-3-(2-imino-4,4-dimethyl-6-oxo-hexahydropyrimidin-1-yl)-1-methyl-indane-5-carboxamide] | 15.5 |
| CCC1(CC)CC(=O)N([C@@H]2Cc3ccc(C(=O)N[C@@H]4c5ccccc5C[C@H]4O)cc32)C(=N)N1 [Example 83, (8R)-8-(4,4-diethyl-2-imino-6-oxo-hexahydropyrimidin-1-yl)-N-[(1R,2R)-2-hydroxyindan-1-yl]bicyclo[4.2.0]octa-1(6),2,4-triene-3-carboxamide] | 20 |
| CC1(C)CC(=O)N([C@@H]2CCc3ccc(C(=O)N[C@H]4CC(C)(C)Oc5ccccc54)cc32)C(=N)N1 [Example 84, (3R)-N-[(4S)-2,2-dimethylchroman-4-yl]-3-(2-imino-4,4-dimethyl-6-oxo-hexahydropyrimidin-1-yl)indane-5-carboxamide] | 0.9 |
| CCC1(CC)CC(=O)N([C@@H]2CCc3ccc(C(=O)N[C@@H]4c5ccccc5C[C@H]4O)cc32)C(=N)N1 [Example 85, (3R)-3-(4,4-diethyl-2-imino-6-oxo-hexahydropyrimidin-1-yl)-N-[(1R,2R)-2-hydroxyindan-1-yl]indane-5-carboxamide] | 10.7 |
| CC1(C)CC(=O)N(C2CC(C)(C)c3ccc(C(=O)N[C@@H]4c5ccccc5C[C@H]4O)cc32)C(=N)N1 (stereo partly drawn) [Example 86, N-[(1R,2R)-2-hydroxyindan-1-yl]-3-(2-imino-4,4-dimethyl-6-oxo-hexahydropyrimidin-1-yl)-1,1-dimethyl-indane-5-carboxamide] | 87.8 |
| CC1(C)CC(=O)N([C@H]2c3cc(C(=O)N[C@@H]4c5ccccc5C[C@H]4O)ccc3CC2(C)C)C(=N)N1 [Example 87, N-[(1R,2R)-2-hydroxyindan-1-yl]-3-(2-imino-4,4-dimethyl-6-oxo-hexahydropyrimidin-1-yl)-2,2-dimethyl-indane-5-carboxamide] | 105 |
| CC[C@]1(C)CC(=O)N([C@@H]2C[C@@H](C)c3ccc(C(=O)N[C@@H]4c5ccccc5C[C@H]4O)cc32)C(=N)N1 [Example 88, (1R,3R)-3-[(4R)-4-ethyl-2-imino-4-methyl-6-oxo-hexahydropyrimidin-1-yl]-N-[(1R,2R)-2-hydroxyindan-1-yl]-1-methyl-indane-5-carboxamide] | 3.4 |
| C[C@@H]1C[C@@H](N2C(=N)NC(C)(C)CC2=O)c2cc(C(=O)N[C@@H]3c4ccccc4C[C@@]3(C)O)ccc21 [Example 89, (1R,3R)-N-[(1R,2R)-2-hydroxy-2-methyl-indan-1-yl]-3-(2-imino-4,4-dimethyl-6-oxo-hexahydropyrimidin-1-yl)-1-methyl-indane-5-carboxamide] | 43.5 |
| C[C@@H]1C[C@@H](N2C(=N)NC(C)(C)CC2=O)c2cc(C(=O)N[C@@H]3c4ccccc4C[C@]3(C)O)ccc21 [Example 90, (1R,3R)-N-[(1R,2S)-2-hydroxy-2-methyl-indan-1-yl]-3-(2-imino-4,4-dimethyl-6-oxo-hexahydropyrimidin-1-yl)-1-methyl-indane-5-carboxamide] | 26.8 |
| CC1(C)CC(=O)N(C2c3cc(C(=O)N[C@@H]4c5ccccc5C[C@H]4O)ccc3OC2(C)C)C(=N)N1 (stereo partly drawn) [Example 91, N-[(1R,2R)-2-hydroxyindan-1-yl]-3-(2-imino-4,4-dimethyl-6-oxo-hexahydropyrimidin-1-yl)-2,2-dimethyl-3H-benzofuran-5-carboxamide] | 45.2 |
| CCC1(CC)CC(=O)N([C@@H]2CCOc3ccc(C(=O)N[C@@H](CO)c4ccccc4)cc32)C(=N)N1 [Example 92, (4R)-4-(4,4-diethyl-2-imino-6-oxo-hexahydropyimidin-1-yl)-N-[(1R)-2-hydroxy-1-phenyl-ethyl]chromane-6-carboxamide] | 97.2 |
| CC1(C)CC(=O)N(C2CC(C)(C)c3ccc(C(=O)N[C@@H]4c5ccccc5C[C@@]4(C)O)cc32)C(=N)N1 (stereo partly drawn) [Example 93, N-[(1R,2R)-2-hydroxy-2-methyl-indan-1-yl]-3-(2-imino-4,4-dimethyl-6-oxo-hexahydropyrimidin-1-yl)-1,1-dimethyl-indane-5-carboxamide] | 190 |
| CCC1(CC)CC(=O)N([C@@H]2CCCc3ccc(C(=O)N[C@@H]4c5ccccc5C[C@H]4O)cc32)C(=N)N1 [Example 94, (4R)-4-(4,4-diethyl-2-imino-6-oxo-hexahydropyrimidin-1-yl)-N-[(1R,2R)-2-hydroxyindan-1-yl]tetralin-6-carboxamide] | 1.9 |
| CC[C@]1(C)CC(=O)N([C@@H]2C[C@@H](C)c3ccc(C(=O)N[C@@H]4c5ccccc5C[C@@]4(C)O)cc32)C(=N)N1 [Example 95, (1R,3R)-3-[(4R)-4-ethyl-2-imino-4-methyl-6-oxo-hexahydropyrimidin-1-yl]-N-[(1R,2R)-2-hydroxy-2-methyl-indan-1-yl]-1-methyl-indane-5-carboxamide] | 8.8 |
| CC[C@]1(C)CC(=O)N([C@@H]2C[C@@H](C)c3ccc(C(=O)N[C@@H]4c5ccccc5C[C@]4(C)O)cc32)C(=N)N1 [Example 96, (1R,3R)-3-[(4R)-4-ethyl-2-imino-4-methyl-6-oxo-hexahydropyrimidin-1-yl]-N-[(1R,2S)-2-hydroxy-2-methyl-indan-1-yl]-1-methyl-indane-5-carboxamide] | 6.5 |
| CCC1(CC)CC(=O)N([C@@H]2CCOc3ccc(C(=O)N[C@@H]4c5ccccc5C[C@H]4N)cc32)C(=N)N1 [Example 97, (4R)-N-[(1R,2R)-2-aminoindan-1-yl]-4-(4,4-diethyl-2-imino-6-oxo-hexahydropyrimidin-1-yl)chromane-6-carboxamide] | 19 |
| CC1(C)CC(=O)N([C@@H]2CCc3ccc(C(=O)N[C@@H]4c5ccccc5OC(C)(C)[C@H]4O)cc32)C(=N)N1 [Example 98, (3R)-N-[(3S,4R)-3-hydroxy-2,2-dimethyl-chroman-4-yl]-3-(2-imino-4,4-dimethyl-6-oxo-hexahydropyrimidin-1-yl)indane-5-carboxamide] | 1.5 |
| CC[C@]1(C)CC(=O)N([C@@H]2CCc3ccc(C(=O)N[C@@H]4c5ccccc5OC[C@]4(C)O)cc32)C(=N)N1 [Example 99, (3R)-3-[(4R)-4-ethyl-2-imino-4-methyl-6-oxo-hexahydropyrimidin-1-yl]-N-[(3R,4R)-3-hydroxy-3-methyl-chroman-4-yl]indane-5-carboxamide] | 4.2 |
| CC[C@]1(C)CC(=O)N([C@@H]2CCc3ccc(C(=O)N[C@@H]4c5ccccc5OC[C@@]4(C)O)cc32)C(=N)N1 [Example 100, (3R)-3-[(4R)-4-ethyl-2-imino-4-methyl-6-oxo-hexahydropyrimidin-1-yl]-N-[(3S,4R)-3-hydroxy-3-methyl-chroman-4-yl]indane-5-carboxamide] | 5.3 |
| CC1(C)CC(=O)N(C2CC(C)(C)c3ccc(C(=O)N[C@@H]4c5ccccc5OC[C@H]4O)cc32)C(=N)N1 (stereo partly drawn) [Example 101, N-[(3S,4R)-3-hydroxychroman-4-yl]-3-(2-imino-4,4-dimethyl-6-oxo-hexahydropyrimidin-1-yl)-1,1-dimethyl-indane-5-carboxamide] | 46.7 |
| CC[C@]1(C)CC(=O)N([C@@H]2C[C@@H](C)Oc3ccc(C(=O)N[C@@H]4c5ccccc5C[C@H]4O)cc32)C(=N)N1 [Example 102, (2R,4R)-4-[(4R)-4-ethyl-2-imino-4-methyl-6-oxo-hexahydropyrimidin-1-yl]-N-[(1R,2R)-2-hydroxyindan-1-yl]-2-methyl-chromane-6-carboxamide] | 14 |
| C[C@@H]1C[C@@H](N2C(=N)NC(C)(C)CC2=O)c2cc(C(=O)N[C@@H]3c4ccccc4OC[C@]3(C)O)ccc21 [Example 103, (1R,3R)-N-[(3R,4R)-3-hydroxy-3-methyl-chroman-4-yl]-3-(2-imino-4,4-dimethyl-6-oxo-hexahydropyrimidin-1-yl)-1-methyl-indane-5-carboxamide] | 6.1 |
| C[C@@H]1C[C@@H](N2C(=N)NC(C)(C)CC2=O)c2cc(C(=O)N[C@@H]3c4ccccc4OC[C@@]3(C)O)ccc21 [Example 104, (1R,3R)-N-[(3S,4R)-3-hydroxy-3-methyl-chroman-4-yl]-3-(2-imino-4,4-dimethyl-6-oxo-hexahydropyrimidin-1-yl)-1-methyl-indane-5-carboxamide] | 5 |
| CCC1(CC)CC(=O)N(C2Cc3ccc(C(=O)N[C@@H]4c5ccccc5OC[C@@]4(C)O)cc32)C(=N)N1 (stereo partly drawn) [Example 105, 8-(4,4-diethyl-2-imino-6-oxo-hexahydropyrimidin-1-yl)-N-[(3S,4R)-3-hydroxy-3-methyl-chroman-4-yl]bicyclo[4.2.0]octa-1(6),2,4-triene-3-carboxamide] | 8.8 |
| CC1(C)CC(=O)N(C2c3cc(C(=O)N[C@@H]4c5ccccc5C[C@@]4(C)O)ccc3OC2(C)C)C(=N)N1 (stereo partly drawn) [Example 107, N-[(1R,2R)-2-hydroxy-2-methyl-indan-1-yl]-3-(2-imino-4,4-dimethyl-6-oxo-hexahydropyrimidin-1-yl)-2,2-dimethyl-3H-benzofuran-5-carboxamide] | 222 |
